Measured values taken from paper PMC8391236, “Effect of Pterostilbene, a Natural Derivative of Resveratrol, in the Treatment of Colorectal Cancer through Top1/Tdp1-Mediated DNA Repair Pathway” (Cancers, 2021).

What was measured:
Tdp1-over CL187 cells = assay: Cell viability of Tdp1-overexpressing cells; type: cell-based, Human
Description: CL187 cells were cultured on 6-cm dishes at 37 °C for 24 h. The plasmid (2.5 μg) was diluted with 125 μL serum-free medium Opti-MEM, mixed gently, and incubated at room temperature for 5 min. Lipo 3000 (Invitrogen, Waltham, MA, USA) were diluted with 125 μL serum-free medium Opti-MEM, mixed and incubated for 5 min. Mixed the plasmid and Lipo 3000, incubated at room temperature for 20 min, the mixture was added to CL187 cells, the Tdp1 overexpressed plasmid were transfected into CL187 cells.
PTE or RE were dissolved in DMSO and diluted with culture medium to 1–100 μM. The final concentration of DMSO was less than 0.1%, and 0.1% DMSO as negative control. CPT, as Top1 inhibitor, was diluted to 0.5 μM [36, 37], and FM, as Tdp1 inhibitor was diluted to 25 μM [38]. Exponentially growing cells were seeded in 96-well plates (5 × 10^3 cells/well) for 12 h. […] Cell viability was determined by CCK-8 (Beyotime Biotechnology, Shanghai, China) assay. Cell viability and inhibition rate were calculated with the following formulae:Cell viability (%) = [OD450 (sample)/OD450 (control)] × 100(1) Inhibition rate (%) = […] − cell viability (%)(2)
The drug concentration required for inhibiting cell proliferation by 50% (IC50) was determined by interpolation from dose-response curves.

CL187 cells = assay: Intracellular drug distribution (LC-MS/MS); type: in vitro ADME, Human; conditions: CL187 cells incubated 6 h; nucleus, mitochondria, cytoplasm extracts
Description: CL187 cells were inoculated in 6-well plates, until the well was full of the cells. Then the supernatant was discarded, and the cells were washed with PBS three times. The cells were added with the different concentrations of PTE or RE and incubated for 6 h. After supernatant was discarded, the cells were washed with cold Hank’s solution for three times to terminate cell metabolism. Cell cytoplasm, nucleus, and mitochondria were extracted with the nuclear and mitochondrial extraction kit (KeyGEN BioTECH, Nanjing, China). Cells were resuspended with 1.5 mL Lysis Buffer and transferred to a 2 mL glass homogenizer for grinding (0–4 °C ice bath). The homogenate was collected and centrifuged at 800× g at 4 °C for 5 min. The nuclei were distributed in the precipitate, while the mitochondria were distributed in the supernatant. […] The protein concentration of each extract was detected by the BCA kit.
The drug contents of the extracted cell cytoplasm, nucleus, and mitochondria were determined by LC-MS/MS. […] The calibration range for the quantitation of each compound in all cellular components was 10 to 10,000 ng/mL. […]

Top1 mRNA = assay: qPCR of Top1 mRNA in cells; type: cell-based, Human; conditions: 6 h
Description: CL187 cells were treated with different concentrations of RE and PTE for 6, 12, 24 h, collected, and added with TRIzol (Thermo Fisher Scientific, Waltham, MA, USA). RNA was precipitated by isopropyl alcohol and washed with 75% ethanol prepared from diethylpyrocarbonate (DEPC) water. The obtained total RNA was dissolved in DEPC water and reverse transcribed into cDNA by a Hifair Ⅲ 1st strand cDNA Synthesis SuperMix for qPCR Kit (Yeasen Biotech, Shanghai, China). The resultant cDNA was used as a template, and the primer sequences were (5′→3′): Top1: F: […], R: […]; Tdp1: F: ACCAGAGTTCAGGAAGAAG, R: TCATAGAGCAGCAGCATC. GAPDH: F: […], R: TCTTCCTCTTGTGCTCTTG. Transcription levels of Top1, Tdp1, and GAPDH genes were determined by qPCR. The qPCR was performed as follows: 95 °C for 10 min, 40 cycles of 95 °C for 10 s, and 60 °C for 30 s. The cycle threshold (Ct) value was determined, and the RQ value was calculated.

- concentration of drug in cells (maximum) (CL187 cells): more than 70.0 ng/μg
SMILES: COc1cc(/C=C/c2ccc(O)cc2)cc(OC)c1 [PTE, 3,5-dimethoxy-4′-hydroxy-trans-stilbene]
- IC50 (Tdp1-over CL187 cells; Homo sapiens, 24 h, Tdp1-over CL187, 24 h): 63 ± 13.6 µM
- IC50 (Tdp1-over CL187 cells; Homo sapiens, 36 h, Tdp1-over CL187, 36 h): 41.1 ± 7.22 µM
- IC50 (Tdp1-over CL187 cells; Homo sapiens, 48 h, Tdp1-over CL187, 48 h): 20.3 ± 3.13 µM
- IC50 (Tdp1-over CL187 cells; Homo sapiens, 72 h, Tdp1-over CL187, 72 h): 19.1 ± 4.08 µM
- IC50 (Tdp1-over CL187 cells; Tdp1-over CL187, 72 h): ~20 µM
- Top1 mRNA expression (Top1 mRNA; Tdp1-over CL187 cells): suppressed, but there was no significant difference
- Top1 mRNA expression (Top1 mRNA; siRNA-Tdp1 CL187 cells): significantly down-regulated
- Top1 mRNA expression (Top1 mRNA; wild-type CL187 cells): significantly inhibited
